Reference: patent US10202372B2, “Trisubstituted pyrido[2,3-D]pyrimidines, methods for preparing same and therapeutic uses thereof” (CENTRE NATIONAL DE LA RECHERCHE SCIENTIFIQUE (C.N.R.S), priority 2012, dated 2019)

Columns and labels:
HUH7 = assay: Toxicity test on cells, HUH7; type: cell-based; conditions: Homo sapiens, Huh-7; 48 hours of treatment, Hoechst nuclei staining
Protocol: (§1) The compounds according to the invention were also tested on the cell lines HuH7, CaCo-2, HCT116, PC3, NCl, HacaT and Fibroblasts.
(§2) Operating Procedure: The cells were cultivated according to the ECACC recommendations. The toxicity test of the compounds on these cells was conducted as follows: 4×10^3 cells/well were sown in 96 wells. 24 hours after sowing the cells, the cells were exposed to increased concentrations of the compounds (0.1 μM-0.3 μM-0.9 μM-2.7 μM-8.3 μM-25 μM). After 48 hours of treatment, the cells were washed in PBS and bound in a cold ethanol/acetic acid (90/5) mixture for 20 minutes. Next, the nuclei were coloured with […] (Sigma). The acquisition of images and the analysis was carried out by means of a reader Cellomics ArrayScan VTI/HCS (Thermo Scientific).

HCT116 = assay: Toxicity test on cells, HCT116; type: cell-based; conditions: Homo sapiens, HCT-116; 48 hours of treatment, Hoechst nuclei staining
Protocol: as §1, §2

PC3 = assay: Toxicity test on cells, PC3; type: cell-based; conditions: Homo sapiens, PC-3; 48 hours of treatment, Hoechst nuclei staining
Protocol: as §1, §2

CaCo2 = assay: Toxicity test on cells, CaCo2; type: cell-based; conditions: Homo sapiens, Caco-2; 48 hours of treatment, Hoechst nuclei staining
Protocol: as §1, §2

PI3Kα = PI3Kα (Homo sapiens, UniProt P42336); assay: PI3Kα kinase activity, Adapta TR-FRET ADP detection; type: biochemical; conditions: purified p110α/p85α heterodimer, triplicate; read-out: Kinases IC50 PI3Kα
Protocol: (§3) The activity of the PI3Kα kinase was evaluated by using a purified heterodimer (reference: PV4788 from Invitrogen) consisting of the α catalytic p110 subunit (PIK3CA) and the α regulation p85 subunit (PIK3R1). The assay of the kinase with the kit Adapta™ (reference: PV5099 from Invitrogen) is an enzymatic test based on the detection of ADP, produced during the reaction, by the fluorescence technique TR-FRET. It took place in a 384-well plate and was able to be divided into two phases: an enzymatic reaction phase, and a phase for detecting the ADP level.
(§4) During the enzymatic reaction phase, the following components were mixed in 10 μL of a same well: 2.5 μL of each dilution in series of inhibitors taken up in DMSO and then diluted to 1/25 in the reaction buffer (250 mM HEPES pH 7.5, 500 mM NaCl, 0.15 CHAPS, 5 mM EGTA, 15 mM MgCl2 and 1 mM DTT, ref.: PV5101 from Invitrogen), 2.5 μL of a solution containing PI3K at the optimum concentration (concentration defined according to the optimization step described in the operating procedure of the kit) diluted in the same reaction buffer, and finally, 5 μL of a solution containing 20 μM ATP and 100 μM PIP2 diluted in the reaction buffer. For each inhibitor concentration, the reaction was conducted in three copies (triplicate). The reaction was then incubated for 60 min at room temperature without any stirring in darkness.
(§5) During the phase for detecting ADP, 5 μL of a detection solution containing an anti-ADP antibody labeled with europium (6 nM), a tracer of the Alexa Fluor® 647 type coupled with ADP (30 nM), and EDTA (30 mM, for stopping the kinase reaction) were diluted in the dilution buffer (reference: PV3574 from Invitrogen). After 30 min of incubation at room temperature with stirring (40 rpm) in darkness, the 384-well plates were read in a plate reader Victor V configured for HTRF (Perkin Elmer). The excitation was produced at 340 nm and emission was measured at 665 nm and 615 nm. The inhibition curve was then plotted according to the emission ratio at 665 nm/615 nm versus the inhibitor concentration.
(§6) In order to obtain a linear response of the signal, a titration curve ATP-ADP, corresponding to the conversion % of ATP into ADP, was achieved by varying both of these species while keeping [ADP]+[ATP]=10 μM. The emission ratio at 665 nm/615 nm resulting from this (Y) was plotted versus the conversion % of ATP into ADP (X). The data of this curve were formatted according to a model with three hyperbolic parameters from the following equation: Y=C+A*(1−(X/(B+X))).
(§7) The software package GraphPad™ Prism® thus allows calculation of the parameters A, B and C. A conversion % corresponds to an emission ratio 665 nm/615 nm, this percentage is calculated by using the following equation: Conversion %=B*(C+A−Ratio)/(Ratio−C)
(§8) The three parameters A, B and C having been defined by the preceding equation, the conversion % was therefore able to be plotted versus the inhibitor concentration. The amount of inhibitor required for causing a 50% variation in the % conversion of ATP into ADP corresponds to the IC50 value of the inhibitor.

HacaT = assay: Toxicity test on cells, HacaT; type: cell-based; conditions: Homo sapiens, 48 hours of treatment, Hoechst nuclei staining
Protocol: as §1, §2

MDA = assay: Toxicity test on cells, MDA; type: cell-based; conditions: 48 hours of treatment, Hoechst nuclei staining
Protocol: [The procedure below names another cell line; the source lists this cell line under the same test.] as §1, §2

Fibroblasts = assay: Toxicity test on cells, Fibroblasts; type: cell-based; conditions: Fibroblast; 48 hours of treatment, Hoechst nuclei staining
Protocol: as §1, §2

NCl = assay: Toxicity test on cells, NCl; type: cell-based; conditions: 48 hours of treatment, Hoechst nuclei staining
Protocol: as §1, §2

mTOR = mTOR (Homo sapiens, UniProt P42345); assay: mTOR kinase activity, LANCE Ultra TR-FRET; type: biochemical; conditions: truncated mTOR protein, triplicate; read-out: Kinases IC50 mTOR
Protocol: The activity of the mTOR kinase was evaluated by using a purified truncated protein of the amino acids 1-1359 (reference: PV4753 from Invitrogen). The assay of the activity of the enzyme was carried out with the kit LANCE® Ultra which is an enzymatic test based on the detection of a phosphorylated peptide produced during the reaction, by using the fluorescence technique TR-FRET. It took place in a 384-well plate and was able to be divided into two phases: an enzymatic reaction phase and a phase for detecting the phosphorylated peptide.
During the enzymatic reaction phase, the following components were mixed in 10 μL of a same well: 5 μL of each dilution in series of inhibitors taken up in DMSO and then diluted to 1/25 in the reaction buffer (50 mM HEPES pH 7.5, 0.1% Tween-20, 1 mM EGTA, 10 mM MnCl2, 3 mM MgCl2 and 2 mM of DTT), 2.5 μL of a solution containing mTOR at the optimum concentration (concentration defined according to the optimization step described in the operating procedure of the kit) diluted in the same reaction buffer, and finally 2.5 μL of a solution containing 40 μM of ATP and 200 μM non-phosphorylated peptide diluted in the reaction buffer. For each inhibitor concentration, the reaction was conducted in three copies (triplicate). The reaction was then incubated for 120 min at room temperature without any stirring in darkness.
During the phase for detecting the phosphorylated peptide, 5 μL of an EDTA solution (32 mM) diluted in the dilution buffer (ref.: CR97-100 from Perkin Elmer) were injected into each well. After 5 min of incubation with stirring, 5 μL of a phosphorylated anti-peptide antibody solution labeled with europium (8 nM) and diluted in the same dilution buffer was added into each well. After 60 min of incubation at room temperature with stirring (40 rpm) in darkness, the 384-well plates were read in a plate reader Victor V configured for HTRF (Perkin Elmer). […] The inhibition curve was then plotted according to the fluorescence intensity value at 665 nm versus the inhibitor concentration.
The amount of inhibitor required for causing a 50% variation in the intensity of the signal corresponds to the IC50 value of the inhibitor.

PI3Kδ = PI3Kδ (Homo sapiens, UniProt O00329); assay: PI3Kδ kinase activity, Adapta TR-FRET ADP detection; type: biochemical; conditions: purified p110δ/p85α heterodimer; read-out: Kinases IC50 PI3Kδ
Protocol: as §3, §4, §5, §6, §7, §8
(§9) The activity of the kinase PI3Kγγ (PV4786 from Invitrogen) was evaluated on the p110γγ catalytic subunit (PI3KCG) and that of the kinase PI3Kδδ on the purified heterodimer (PV5273) respectively consisting of the δδ catalytic p110 subunit (PIK3CD) and the α regulation p85 subunit (PIK3R1) by following the same procedure.

PI3Kγ = PI3Kγ (Homo sapiens, UniProt P48736); assay: PI3Kγ kinase activity, Adapta TR-FRET ADP detection; type: biochemical; conditions: p110γ catalytic subunit; read-out: Kinases IC50 PI3Kγ
Protocol: as §3, §4, §5, §6, §7, §8, §9

Chain of PI3Kα (P42336 whole entry): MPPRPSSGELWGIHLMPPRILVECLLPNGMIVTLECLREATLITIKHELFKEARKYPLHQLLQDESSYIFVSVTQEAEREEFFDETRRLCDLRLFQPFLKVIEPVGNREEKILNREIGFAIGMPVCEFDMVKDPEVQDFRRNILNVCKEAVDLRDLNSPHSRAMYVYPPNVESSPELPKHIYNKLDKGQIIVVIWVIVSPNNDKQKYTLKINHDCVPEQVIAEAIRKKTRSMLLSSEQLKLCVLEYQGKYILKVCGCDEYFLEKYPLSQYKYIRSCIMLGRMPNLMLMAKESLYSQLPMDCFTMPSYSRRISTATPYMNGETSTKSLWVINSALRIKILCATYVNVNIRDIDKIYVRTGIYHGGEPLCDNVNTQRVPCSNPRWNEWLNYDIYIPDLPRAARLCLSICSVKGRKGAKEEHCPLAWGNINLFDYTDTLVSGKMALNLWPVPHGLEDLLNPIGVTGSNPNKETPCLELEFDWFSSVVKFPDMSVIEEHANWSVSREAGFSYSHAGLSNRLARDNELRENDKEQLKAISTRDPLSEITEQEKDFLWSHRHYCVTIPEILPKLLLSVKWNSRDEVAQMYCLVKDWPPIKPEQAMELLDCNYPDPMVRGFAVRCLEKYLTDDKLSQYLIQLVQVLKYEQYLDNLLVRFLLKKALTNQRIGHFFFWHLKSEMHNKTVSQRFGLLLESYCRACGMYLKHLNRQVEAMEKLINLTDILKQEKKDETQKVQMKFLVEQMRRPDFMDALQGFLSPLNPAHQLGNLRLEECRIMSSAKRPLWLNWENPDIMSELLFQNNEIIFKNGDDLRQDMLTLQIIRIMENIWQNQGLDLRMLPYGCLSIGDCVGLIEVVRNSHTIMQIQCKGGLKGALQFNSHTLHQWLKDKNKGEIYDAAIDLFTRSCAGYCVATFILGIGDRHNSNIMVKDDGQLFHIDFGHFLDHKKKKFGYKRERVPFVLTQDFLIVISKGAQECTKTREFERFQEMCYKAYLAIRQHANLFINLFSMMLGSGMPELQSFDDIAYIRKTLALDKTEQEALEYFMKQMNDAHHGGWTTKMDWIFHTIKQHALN
Chain of PI3Kα (P27986 whole entry partner): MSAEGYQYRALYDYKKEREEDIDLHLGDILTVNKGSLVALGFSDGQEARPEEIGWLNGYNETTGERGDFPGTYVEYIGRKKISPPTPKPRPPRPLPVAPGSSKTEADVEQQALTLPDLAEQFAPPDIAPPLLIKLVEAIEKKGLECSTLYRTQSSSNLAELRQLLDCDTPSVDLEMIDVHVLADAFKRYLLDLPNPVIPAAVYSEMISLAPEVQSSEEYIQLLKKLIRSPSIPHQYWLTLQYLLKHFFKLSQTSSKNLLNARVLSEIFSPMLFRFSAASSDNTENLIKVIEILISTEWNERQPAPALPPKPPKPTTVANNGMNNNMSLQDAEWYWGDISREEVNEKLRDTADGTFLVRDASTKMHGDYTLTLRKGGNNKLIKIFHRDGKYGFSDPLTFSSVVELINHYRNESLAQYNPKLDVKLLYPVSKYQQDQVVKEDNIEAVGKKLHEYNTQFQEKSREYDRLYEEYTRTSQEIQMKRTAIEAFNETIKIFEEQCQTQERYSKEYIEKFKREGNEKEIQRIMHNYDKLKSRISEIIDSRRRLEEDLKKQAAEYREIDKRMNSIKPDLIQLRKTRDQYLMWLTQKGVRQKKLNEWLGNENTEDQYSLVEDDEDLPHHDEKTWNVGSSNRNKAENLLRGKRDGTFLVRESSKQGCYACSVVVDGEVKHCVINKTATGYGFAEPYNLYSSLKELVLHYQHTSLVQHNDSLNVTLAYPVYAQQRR
Chain of PI3Kδ (O00329 whole entry): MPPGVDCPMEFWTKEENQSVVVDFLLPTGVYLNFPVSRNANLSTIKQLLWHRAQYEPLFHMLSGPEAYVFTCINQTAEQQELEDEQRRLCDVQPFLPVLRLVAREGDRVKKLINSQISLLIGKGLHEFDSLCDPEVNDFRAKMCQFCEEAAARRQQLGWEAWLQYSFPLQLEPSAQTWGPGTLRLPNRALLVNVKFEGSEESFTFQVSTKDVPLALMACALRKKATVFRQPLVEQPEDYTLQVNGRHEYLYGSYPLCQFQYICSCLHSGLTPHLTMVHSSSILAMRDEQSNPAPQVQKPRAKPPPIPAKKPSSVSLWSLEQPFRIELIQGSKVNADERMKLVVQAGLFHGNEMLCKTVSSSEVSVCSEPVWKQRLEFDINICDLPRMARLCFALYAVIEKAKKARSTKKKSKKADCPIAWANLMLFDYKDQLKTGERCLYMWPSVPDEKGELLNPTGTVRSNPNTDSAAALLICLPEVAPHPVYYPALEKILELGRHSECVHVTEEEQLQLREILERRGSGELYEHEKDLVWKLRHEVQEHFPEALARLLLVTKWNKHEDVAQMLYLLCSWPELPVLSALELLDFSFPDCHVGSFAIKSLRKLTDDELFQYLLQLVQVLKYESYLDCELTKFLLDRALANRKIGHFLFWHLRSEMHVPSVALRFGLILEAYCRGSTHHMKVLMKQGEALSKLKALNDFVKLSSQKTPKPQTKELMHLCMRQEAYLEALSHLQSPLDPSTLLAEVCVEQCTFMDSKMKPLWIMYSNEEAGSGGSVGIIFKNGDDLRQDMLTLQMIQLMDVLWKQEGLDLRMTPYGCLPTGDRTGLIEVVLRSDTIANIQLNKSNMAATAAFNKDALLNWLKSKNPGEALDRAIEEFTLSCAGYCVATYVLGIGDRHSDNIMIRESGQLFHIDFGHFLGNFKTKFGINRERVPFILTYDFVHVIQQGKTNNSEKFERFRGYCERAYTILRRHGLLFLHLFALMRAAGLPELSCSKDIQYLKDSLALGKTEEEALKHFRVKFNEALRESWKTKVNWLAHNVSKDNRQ
Chain of PI3Kδ (P27986 whole entry partner): as the sequence (P27986 whole entry partner) above
Chain of mTOR (P42345 1360-2549): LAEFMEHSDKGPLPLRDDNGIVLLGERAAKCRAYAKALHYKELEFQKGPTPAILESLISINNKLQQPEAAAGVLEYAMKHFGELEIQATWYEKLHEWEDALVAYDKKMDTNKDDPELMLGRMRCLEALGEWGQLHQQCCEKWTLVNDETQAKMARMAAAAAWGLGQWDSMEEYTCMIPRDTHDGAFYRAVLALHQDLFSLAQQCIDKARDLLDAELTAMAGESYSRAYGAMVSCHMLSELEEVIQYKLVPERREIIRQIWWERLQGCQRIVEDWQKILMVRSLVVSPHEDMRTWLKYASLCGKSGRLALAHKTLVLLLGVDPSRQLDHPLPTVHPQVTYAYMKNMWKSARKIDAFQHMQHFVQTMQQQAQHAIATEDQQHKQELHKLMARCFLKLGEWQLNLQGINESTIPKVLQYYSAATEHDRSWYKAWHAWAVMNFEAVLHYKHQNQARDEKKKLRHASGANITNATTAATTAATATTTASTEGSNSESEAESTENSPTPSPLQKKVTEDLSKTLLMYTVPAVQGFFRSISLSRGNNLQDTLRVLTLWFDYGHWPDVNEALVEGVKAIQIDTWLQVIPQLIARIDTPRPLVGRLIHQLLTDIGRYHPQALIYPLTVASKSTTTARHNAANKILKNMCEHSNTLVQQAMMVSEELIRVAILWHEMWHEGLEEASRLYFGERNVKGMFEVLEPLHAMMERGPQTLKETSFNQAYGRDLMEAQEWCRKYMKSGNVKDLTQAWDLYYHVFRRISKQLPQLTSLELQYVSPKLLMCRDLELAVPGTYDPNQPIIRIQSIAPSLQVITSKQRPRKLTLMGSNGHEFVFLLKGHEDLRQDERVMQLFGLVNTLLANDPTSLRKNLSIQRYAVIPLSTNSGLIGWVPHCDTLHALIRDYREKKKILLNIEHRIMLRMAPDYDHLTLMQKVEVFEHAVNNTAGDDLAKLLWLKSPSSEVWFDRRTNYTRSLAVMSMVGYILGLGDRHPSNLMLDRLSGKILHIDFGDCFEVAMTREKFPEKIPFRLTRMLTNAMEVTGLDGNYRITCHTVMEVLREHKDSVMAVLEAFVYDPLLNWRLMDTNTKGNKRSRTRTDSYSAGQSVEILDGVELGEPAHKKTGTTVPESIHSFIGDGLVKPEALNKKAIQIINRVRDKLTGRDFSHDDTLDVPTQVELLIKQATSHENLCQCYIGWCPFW

SMILES | IC50 (HUH7) [µM] | IC50 (HCT116) [µM] | melting point [°C] | IC50 (PC3) [µM] | IC50 (CaCo2) [µM] | IC50 (PI3Kα) [µM] | IC50 (HacaT) [µM] | IC50 (MDA) [µM] | IC50 (Fibroblasts) [µM] | IC50 (NCl) [µM] | IC50 (mTOR) [µM] | IC50 (PI3Kδ) [µM] | IC50 (PI3Kγ) [µM]
O=C(Nc1ccc(CO)cc1)Nc1ccc(-c2nc(N3CCOCC3)c3ncc(CN4CCOCC4)cc3n2)cc1 [Compound 78, 1-[4-(hydroxymethyl)phenyl]-3-{4-[4-(morpholin-4-yl)-7-(morpholin-4 ylmethyl)pyrido[3,2-d]pyrimidin-2-yl]phenyl}urea] | 2 | 1 | > 260 | 2 | 12 | 0.023 | 2 | 3 | > 25 | 3 |  |  | 
Oc1ccc(-c2nc(N3CCOCC3)c3ncc(Cl)cc3n2)cc1 [Compound 7, 4-(7-Chloro-4-morpholinopyrido[3,2-d]pyrimidin-2-yl)phenol] | 25 | > 25 | 253 to 254 | 25 | 25 | 15.2 |  | 25 | > 25 | > 25 | 0.184 | 1.5 | > 50
Oc1ccccc1-c1nc(N2CCOCC2)c2ncc(Cl)cc2n1 [Compound 5, 2-(7-Chloro-4-morpholinopyrido[3,2-d]pyrimidin-2-yl)phenol] | > 25 | > 25 | 212 | > 25 | > 25 |  |  | > 25 | > 25 | > 25 |  |  | 
C=Cc1cnc2c(N3CCOCC3)nc(-c3ccc(O)cc3)nc2c1 [Compound 16, 4-(4-Morpholino-7-vinylpyrido[3,2-d]pyrimidin-2-yl)phenol] | > 25 | > 25 | > 260 | > 25 | > 25 | 1.6 | > 25 | > 25 | > 25 | > 25 | 0.37 | 2.1 | 1.7
O=[N+]([O-])c1ccc(-c2nc(N3CCOCC3)c3ncc(Cl)cc3n2)cc1 [Compound 10, 4-(7-chloro-2-(4-nitrophenyl)pyrido[3,2-d]pyrimidin-4-yl)morpholine] |  |  | 200 |  |  |  |  |  |  |  |  |  | 
O=C(Nc1ccc(-c2nc(N3CCOCC3)c3ncc(CN4CCOCC4)cc3n2)cc1)Nc1cccc(CO)c1 [Compound 80, 1-[3-(hydroxymethyl)phenyl]-3-{4-[4-(morpholin-4-yl)-7-(morpholin-4-ylmethyl)pyrido[3,2-d]pyrimidin-2-yl]phenyl}urea] |  |  | 200 to 202 |  |  |  |  |  |  |  |  |  | 
OCc1cccc(-c2nc(N3CCOCC3)c3ncc(Cl)cc3n2)c1 [Compound 8, (3-(7-Chloro-4-morpholinopyrido[3,2-d]pyrimidin-2-yl)phenyl)methanol] | 25 | 5 | 157 | 20 | 3 | 0.032 |  | 20 | 2 | > 25 | > 50 | 0.016 | 0.431
COc1ccc(-c2nc(N3CCOCC3)c3ncc(Cl)cc3n2)cc1 [Compound 9, 4-(7-chloro-2-(4-methoxyphenyl)pyrido[3,2-d]pyrimidin-4-yl)morpholine] | > 25 | > 25 | 176 | > 25 | > 25 | 6.2 | > 25 | > 25 | > 25 | > 25 | > 50 | 0.363 | 3.1
